From patent US20260041649A1, “ANTI-INFLAMMATORY AGENT” (WATANABE OYSTER LABORATORY, CO., LTD., priority 2023, published 2026)

System: mouse macrophage RAW264.7 cells
Test: Western blotting of proteins related to proliferation
Type: cell-based
Conditions: DHMBA 10 μM, 3 days
Procedure: RAW264.7 cells (1×10^6 cells/10 ml of medium in 100 mm dish) were cultured for 3 days in a DMEM culture medium containing 10% FBS, 1% P/S, and 1% fungizone in the control group (1% ethanol; 0 μM DHMBA as final concentration) and the DHMBA treated group (10 μM). After the culture, cells were removed from the dish using a cell scraper in a cell lysis buffer containing protease inhibitors. Forty micrograms of supernatant protein per lane were separated by electrophoresis on a 12% SDS-PAGE gel, transferred onto a […], and probed by Western blotting with antibodies against various proteins. […] In FIG. 3(B), band intensities are shown as fold increase over the control. Data are presented as the mean±SD of values obtained from 4 dishes using different cell preparations. *: Significant difference (p<0.001) between the control group and the DHMBA-treated group. Statistical analysis was performed using 1-way ANOVA with Tukey-Kramer post-test.
RAW264.7 cells (1×10^6 cells/10 ml of 100 mm dish) were cultured for 3 days in 10% FBS, 1% P/S (1% ethanol), or in the DHMBA-treated group (10 μM). After the culture, the dishes were washed with cold PBS (10 ml) to remove floating and dead cells. The cell lysis buffer (Cell Signaling Technology, Inc., Danvers, MA, USA) supplemented with protease/protein phosphatase inhibitor (Roche Diagnostics, Indianapolis, IN, USA) was added to the cells to collect cell lysates of the adherent cells as described in the previous study. The cell lysates were centrifuged at 17,000×g, 4° C. for 10 min. Protein concentrations in the supernatants were measured using Bio-Rad Protein Assay Dye (Bio-Rad Laboratories, Inc., Hercules, CA, USA) with bovine serum albumin as a standard. The cell lysates were stored at −80° C. until use. The supernatant proteins (40 μg/lane) were separated by SDS-polyacrylamide gel electrophoresis (12% SDS-PAGE) and transferred to a PVDF membrane. The transferred membranes were immunoblotted with specific antibodies against various proteins, including Ras (cat. no. 3339, rabbit), Akt (cat. no. 9272, rabbit), mitogen-activated protein kinase (MAPK; cat. no. 4695, rabbit), phosphorylated MAPK (cat. no. 4370, rabbit), mechanistic target of rapamycin (mTOR; cat. no. 4517, mouse), Rb (cat. no. 9309, mouse), p21 (cat. no. 2947, rabbit), STAT3 (cat. no. 12640, rabbit), COX-1 (cat. no. 48415), COX-2 (cat. no. 4842), and β-actin (cat. no. 3700, mouse), all of which were purchased from Cell Signaling Technology, Inc. (Danvers, MA, USA). Specific antibodies for p53 (cat. no. sc-126, mouse) and NF-κB p65 (cat. no. sc-109, rabbit) were purchased from Santa Cruz Biotechnology Inc. (Santa Cruz, CA, USA). Additionally, rabbit anti-regucalcin antibody (cat. no. HPA029103, rabbit) was obtained from Sigma-Aldrich. Target proteins were incubated overnight at 4° C. with one of the above primary antibodies (1:1,000). After incubation, the membranes were further incubated with horseradish peroxidase-conjugated secondary antibodies (Santa Cruz Biotechnology Inc., cat. no. sc-2005 (mouse) or sc-2305 (rabbit); dilution 1:2000) for 60 min at room temperature, and protein bands were detected using chemiluminescence substrates (cat. no. 34577, Thermo Fisher Scientific Inc., Rockford, IL, USA) on X-ray films. From 4 independent experiments, a total of 3 or 4 films with separate membranes were scanned with Epson Perfection 1660 Photo scanner to quantify the bands using Image J2 software (National Institutes of Health, Bethesda, MD, USA). In addition, for immunoblotting using additional antibodies, the membranes were incubated at room temperature for 30 min with Restore (registered trademark) Western Blot Stripping Buffer (cat. no. 21059; Thermo Fisher Scientific Inc., Rockford, IL, USA) to remove attached chemiluminescence substrates (Thermo Fisher Scientific Inc.,) and were used to measure other protein molecules.

Question: `COc1c(O)cc(CO)cc1O` [DHMBA, 3,5-dihydroxy-4-methoxybenzyl alcohol] was tested. Which “expression level of Rb” value did it give?
Answer: The value was “increased”.

Question: And the “expression level of p21” value?
Answer: The value was “increased”.

Question: And the “expression level of p53” value?
Answer: The value was “increased”.

Question: And the “expression level of regucalcin” value?
Answer: The value was “increased”.

Question: What about the “level of Akt” value of the same molecule?
Answer: The value was “decreased”.

Question: And the “level of MAPK” value?
Answer: Its value is “decreased”.

Question: What about the “level of PI3 kinase” value of the same molecule?
Answer: The value was “decreased”.

Question: What about the “level of Ras” value of the same molecule?
Answer: Its value is “decreased”.

Question: What about the “level of mTOR” value of the same molecule?
Answer: The value was “decreased”.

Question: And the “level of phospho-MAPK” value?
Answer: The value was “decreased”.
